The test system of one test is H929 cells. The experiment in a line: In vitro cytotoxicity (MTT) on H929 multiple myeloma tumour line. The format is cell-based. As to conditions: Microculture Tetrazolium Assay. The method, then:
The cytotoxicity studies were carried out on the H929 multiple myeloma tumour line.
The cells are distributed onto microplates and exposed to the test compounds for 48 hours.
The cell viability is then quantified by a colorimetric assay, the Microculture Tetrazolium Assay (Cancer Res., 1987, 47, 939-942).

In the next test the target is Mcl-1 protein (Homo sapiens, UniProt Q07820). The experiment in a line: Inhibition of Mcl-1 by the fluorescence polarisation technique. Format: binding. The settings on record: fluorescence polarisation test; Fluorescein labelled ligand 1 nM, Mcl-1 protein 5 nM, ~2 hours at r.t.; read-out: IC50 (M) Mcl-1 FP. In outline: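 Competitive FP displacement of fluorescein-labelled peptide ligand (1 nM final) from Mcl-1 (5 nM final) in HEPES 10 mM, 150 mM NaCl, 0.05% Tween 20, pH 7.4, 5% DMSO final. Read after ~2 h at r.t.; IC50 from 11-point 4-parameter logistic fit of % mP reduction.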
Chain of Mcl-1 protein (Q07820 whole entry): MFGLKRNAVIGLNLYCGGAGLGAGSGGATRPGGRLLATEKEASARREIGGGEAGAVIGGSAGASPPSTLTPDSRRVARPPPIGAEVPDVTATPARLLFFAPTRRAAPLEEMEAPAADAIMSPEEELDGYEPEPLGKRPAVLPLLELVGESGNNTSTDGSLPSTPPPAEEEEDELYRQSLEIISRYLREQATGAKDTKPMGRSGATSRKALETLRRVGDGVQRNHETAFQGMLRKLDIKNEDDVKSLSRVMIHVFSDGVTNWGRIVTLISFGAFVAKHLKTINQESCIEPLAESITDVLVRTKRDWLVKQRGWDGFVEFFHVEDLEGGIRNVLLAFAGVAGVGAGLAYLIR
On the technique in general: Polarisation of emitted light reports the rotation of a fluorescent probe.

Setting [1] is: Homo sapiens, NCI-H929, exposed 48 hours.

Structures can show the parent of a compound that is named as a salt.

The term IC50 denotes the concentration that gives 50% inhibition.

For the molecule `Cc1c(-c2c(-c3ccc(F)cc3)sc3ncnc(OC(Cc4ccccc4OCc4ccnc(-c5cccc(OCCOCCO)c5)n4)C(=O)O)c23)ccc(OCCN2CCN(C)CC2)c1Cl` [Example 39, (2R)-2-{[(5Sa)-5-{3-chloro-2-methyl-4-[2-(4-methylpiperazin-1-yl)ethoxy]phenyl}-6-(4-fluorophenyl)thieno[2,3-d]pyrimidin-4-yl]oxy}-3-{2-[(2-{3-[2-(2-hydroxyethoxy)ethoxy]phenyl}pyrimidin-4-yl)methoxy]phenyl}propanoic acid], the IC50 in the test with H929 cells (setting [1]) turned out to be 3.25 nM; at Mcl-1 protein, 3.05e-09 M.
As to `COCCOCCOc1cccc(-c2nccc(COc3ccccc3CC(Oc3ncnc4sc(-c5ccc(F)cc5)c(-c5ccc(OCCN6CCN(C)CC6)c(Cl)c5C)c34)C(=O)O)n2)c1` [Example 40, (2R)-2-{[(5Sa)-5-{3-chloro-2-methyl-4-[2-(4-methylpiperazin-1-yl)ethoxy]phenyl}-6-(4-fluorophenyl)thieno[2,3-d]pyrimidin-4-yl]oxy}-3-{2-[(2-{3-[2-(2-methoxyethoxy)ethoxy]phenyl}pyrimidin-4-yl)methoxy]phenyl}propanoic acid], the values for the concentration for half-maximal inhibition (IC50) in the test on H929 cells (setting [1]) and on Mcl-1 protein were 6.15 nM and 3.75e-09 M, respectively.
On to `Cc1c(-c2c(-c3ccc(F)cc3)sc3ncnc(OC(Cc4ccccc4OCc4ccnc(-c5cccc(COC(=O)NCCN6CCN(C)CC6)c5)n4)C(=O)O)c23)ccc(OCCN2CCN(C)CC2)c1Cl` [Example 41, (2R)-2-{[(5Sa)-5-{3-chloro-2-methyl-4-[2-(4-methylpiperazin-1-yl)ethoxy]phenyl}-6-(4-fluorophenyl)thieno[2,3-d]pyrimidin-4-yl]oxy}-3-{2-[(2-{3-[({[2-(4-methylpiperazin-1-yl)ethyl]carbamoyl}oxy)methyl]phenyl}pyrimidin-4-yl)methoxy]phenyl}propanoic acid], for which the 50% inhibitory concentration (IC50) with H929 cells (setting [1]) stood at 90.8 nM; at Mcl-1 protein it was 3.45e-09 M.
As to `Cc1c(-c2c(-c3ccc(F)cc3)sc3ncnc(OC(Cc4ccccc4OCc4ccnc(-c5cccc(COC(=O)NCCN6CCOCC6)c5)n4)C(=O)O)c23)ccc(OCCN2CCN(C)CC2)c1Cl` [Example 42, (2R)-2-{[(5Sa)-5-{3-chloro-2-methyl-4-[2-(4-methylpiperazin-1-yl)ethoxy]phenyl}-6-(4-fluorophenyl)thieno[2,3-d]pyrimidin-4-yl]oxy}-3-{2-[(2-{3-[({[2-(morpholin-4-yl)ethyl]carbamoyl}oxy)methyl]phenyl}pyrimidin-4-yl)methoxy]phenyl}propanoic acid], the half-maximal inhibitory concentration (IC50) is 44.5 nM with H929 cells (setting [1]) and 4.45e-09 M on Mcl-1 protein.
Taken in the same sequence, the figures for `Cc1c(-c2c(-c3ccc(F)cc3)sc3ncnc(OC(Cc4ccccc4OCc4ccnc(-c5cccc(COC(=O)NCCN(C)C)c5)n4)C(=O)O)c23)ccc(OCCN2CCN(C)CC2)c1Cl` [Example 43, (2R)-2-{[(5Sa)-5-{3-chloro-2-methyl-4-[2-(4-methylpiperazin-1-yl)ethoxy]phenyl}-6-(4-fluorophenyl)thieno[2,3-d]pyrimidin-4-yl]oxy}-3-{2-[(2-{3-[({[2-(dimethylamino)ethyl]carbamoyl}oxy)methyl]phenyl}pyrimidin-4-yl)methoxy]phenyl}propanoic acid] were 31.1 nM and 4.55e-09 M.
For the molecule `Cc1c(-c2c(-c3ccc(F)cc3)sc3ncnc(OC(Cc4ccccc4OCc4ccnc(-c5cccc(COC(=O)NCCN6CCCC6)c5)n4)C(=O)O)c23)ccc(OCCN2CCN(C)CC2)c1Cl` [Example 44, (2R)-2-{[(5Sa)-5-{3-chloro-2-methyl-4-[2-(4-methylpiperazin-1-yl)ethoxy]phenyl}-6-(4-fluorophenyl)thieno[2,3-d]pyrimidin-4-yl]oxy}-3-{2-[(2-{3-[({[2-(pyrrolidin-1-yl)ethyl]carbamoyl}oxy)methyl]phenyl}pyrimidin-4-yl)methoxy]phenyl}propanoic acid], the results for the IC50 in the test with H929 cells (setting [1]) and at Mcl-1 protein were 28.7 nM and 3.7e-09 M, respectively.
Taken in the same sequence, the figures for `COCCN(CCOC)C(=O)OCc1cccc(-c2nccc(COc3ccccc3CC(Oc3ncnc4sc(-c5ccc(F)cc5)c(-c5ccc(OCCN6CCN(C)CC6)c(Cl)c5C)c34)C(=O)O)n2)c1` [Example 45, (2R)-3-[2-({2-[3-({[bis(2-methoxyethyl)carbamoyl]oxy}methyl)phenyl]pyrimidin-4-yl}methoxy)phenyl]-2-{[(5Sa)-5-{3-chloro-2-methyl-4-[2-(4-methylpiperazin-1-yl)ethoxy]phenyl}-6-(4-fluorophenyl)thieno[2,3-d]pyrimidin-4-yl]oxy}propanoic acid] were 4.58 nM and 3.2e-09 M.
On the same counts, the results for `Cc1c(-c2c(-c3ccc(F)cc3)sc3ncnc(OC(Cc4ccccc4OCc4ccnc(-c5cccc(COC(=O)N6CCOCCOCCOCCOCCOCC6)c5)n4)C(=O)O)c23)ccc(OCCN2CCN(C)CC2)c1Cl` [Example 46, (2R)-2-{[(5Sa)-5-{3-chloro-2-methyl-4-[2-(4-methylpiperazin-1-yl)ethoxy]phenyl}-6-(4-fluorophenyl)thieno[2,3-d]pyrimidin-4-yl]oxy}-3-(2-{[2-(3-{[(1,4,7,10,13-pentaoxa-16-azacyclooctadecan-16-ylcarbonyl)oxy]methyl}phenyl)pyrimidin-4-yl]methoxy}phenyl)propanoic acid] are 23.4 nM and 2.55e-09 M.
Taken in the same sequence, the figures for `Cc1c(-c2c(-c3ccc(F)cc3)sc3ncnc(OC(Cc4ccccc4OCc4ccnc(-c5cccc(OCC(O)CO)c5)n4)C(=O)O)c23)ccc(OCCN2CCN(C)CC2)c1Cl` [Example 47, (2R)-2-{[(5Sa)-5-{3-chloro-2-methyl-4-[2-(4-methylpiperazin-1-yl)ethoxy]phenyl}-6-(4-fluorophenyl)thieno[2,3-d]pyrimidin-4-yl]oxy}-3-[2-({2-[3-(2,3-dihydroxypropoxy)phenyl]pyrimidin-4-yl}methoxy)phenyl]propanoic acid] were 18.2 nM and 4.05e-09 M.
For `Cc1c(-c2c(-c3ccc(F)cc3)sc3ncnc(OC(Cc4ccccc4OCc4ccnc(-c5ccc(OP(=O)(O)O)cc5)n4)C(=O)O)c23)ccc(OCCN2CCN(C)CC2)c1Cl` [Example 57, 4-[4-({2-[(2R)-2-carboxy-2-{[(5Sa)-5-{3-chloro-2-methyl-4-[2-(4-methylpiperazin-1 yl)ethoxy]phenyl}-6-(4-fluorophehnyl)thieno[2,3-d]pyrimidin-4-yl]oxy}ethyl]phenoxy}methyl)pyrimidin-2-yl]phenyl phosphate disodium salt], the IC50 in the test with H929 cells (exposed 48 hours) came to 22.7 nM; on Mcl-1 protein, 4.6e-09 M.

Values taken from patent US10322131B2, “Hydroxyacid derivatives, a process for their preparation and pharmaceutical compositions containing them” (LES LABORATOIRES SERVIER, priority 2015, dated 2019).
